Assay results as given in patent US20230066946A1, “1,5-DIPHENYLPYRAZOLYL-3-OXYALKYL ACIDS AND 1-PHENYL-5-THIENYLPYRAZOLYL-3-OXYALKYL ACIDS AND THE USE THEREOF FOR CONTROL OF UNWANTED PLANT GROWTH” (Bayer Aktiengesellschaft, priority 2019, published 2023).

Tests used:
[1] = test system: AMARE; experiment: Post-emergence herbicidal action against AMARE; assay type: in vivo, Amaranthus retroflexus; details: visual rating about 3 weeks after treatment
Method: (§1) [table] Seeds of mono- and dicotyledonous weed plants are placed in plastic pots in sandy loam soil (twin sowing with one species each of mono- or dicotyledonous weed plants per pot), covered with soil and cultivated in a greenhouse under controlled growth conditions. 2 to 3 weeks after sowing, the test plants are treated at the one-leaf stage. The compounds of the invention, formulated in the form of wettable powders (WP) or as emulsion concentrates (EC), are applied to the green parts of the plants as aqueous suspension or emulsion with addition of 0.5% additive at a water application rate equivalent to 600 litres per hectare. After the test plants have been kept in the greenhouse under optimum growth conditions for about 3 weeks, the activity of the preparations is rated visually in comparison to untreated controls. For example, 100% activity=the plants have died, 0% activity=like control plants. Tables 5.1-5.16 below show the effects of selected compounds of the general formula (I) according to Tables 1 to 3 on various harmful plants at an application rate corresponding to 1280 or 320 g/ha, which have been obtained by the aforementioned experimental method.

[2] = test system: PHBPU; experiment: Post-emergence herbicidal action against PHBPU; assay type: in vivo, Pharbitis purpurea; details: 320 g/ha, visual rating about 3 weeks after treatment
Method: as §1

[3] = test system: AMARE; experiment: Pre-emergence herbicidal action against AMARE; assay type: in vivo, Amaranthus retroflexus; details: scored visually after about 3 weeks vs untreated controls; for Pre-emergence action against AMARE in %: 1280 g/ha
Description: (§2) Seeds of mono- and dicotyledonous weed plants are placed in plastic pots in sandy loam soil (doubly sown with one species each of mono- or dicotyledonous weed plants per pot) and covered with soil. The compounds of the invention, formulated in the form of wettable powders (WP) or as emulsion concentrates (EC), are then applied onto the surface of the covering soil as aqueous suspension or emulsion with addition of 0.5% additive at a water application rate equivalent to 600 litres per hectare. After the treatment, the pots are placed in a greenhouse and kept under good growth conditions for the trial plants. After about 3 weeks, the effect of the preparations is scored visually in comparison with untreated controls as percentages. For example, 100% activity=the plants have died, 0% activity=like control plants. [table] Tables 4.1-4.15 below show the effects of selected compounds of the general formula (I) according to Tables 1 to 3 on various harmful plants at an application rate corresponding to 1280 or 320 g/ha, which have been obtained by the aforementioned experimental method.

[4] = test system: POLCO; experiment: Post-emergence herbicidal action against POLCO; assay type: in vivo, Polygonum convolvulus; details: 320 g/ha, visual rating about 3 weeks after treatment
Method: as §1

[5] = test system: VIOTR; experiment: Post-emergence herbicidal action against VIOTR; assay type: in vivo, Viola tricolor; details: 320 g/ha, visual rating about 3 weeks after treatment
Method: as §1

[6] = test system: VERPE; experiment: Post-emergence herbicidal action against VERPE; assay type: in vivo, Veronica persica; details: 320 g/ha, visual rating about 3 weeks after treatment
Method: as §1

[7] = test system: STEME; experiment: Post-emergence herbicidal action against STEME; assay type: in vivo, Stellaria media; details: visual rating about 3 weeks after treatment
Method: as §1

[8] = test system: MATIN; experiment: Post-emergence herbicidal action against MATIN; assay type: in vivo, Matricaria inodora; details: visual rating about 3 weeks after treatment
Method: as §1

[9] = test system: ECHCG; experiment: Pre-emergence herbicidal action against ECHCG; assay type: in vivo, Echinochloa crus-galli; details: scored visually after about 3 weeks vs untreated controls, 100% = plants have died, 0% = like control plants
Description: as §2

[10] = test system: VERPE; experiment: Pre-emergence herbicidal action against VERPE; assay type: in vivo, Veronica persica; details: 320 g/ha, scored visually after about 3 weeks vs untreated controls
Description: as §2

[11] = test system: STEME; experiment: Pre-emergence herbicidal action against STEME; assay type: in vivo, Stellaria media; details: 1280 g/ha, scored visually after about 3 weeks vs untreated controls
Description: as §2

[12] = test system: SETVI; experiment: Pre-emergence herbicidal action against SETVI; assay type: in vivo, Setaria viridis; details: 1280 g/ha, scored visually after about 3 weeks vs untreated controls
Description: as §2

[13] = test system: ECHCG; experiment: Post-emergence herbicidal action against ECHCG; assay type: in vivo, Echinochloa crus-galli; details: 1280 g/ha, post-emergence at one-leaf stage, rated visually after about 3 weeks vs untreated controls
Method: as §1

[14] = test system: SETVI; experiment: Post-emergence herbicidal action against SETVI; assay type: in vivo, Setaria viridis; details: 1280 g/ha, post-emergence at one-leaf stage, rated visually after about 3 weeks vs untreated controls
Method: as §1

COC(=O)COc1nn(-c2ccccc2)c(-c2ccc(Cl)cc2)c1Cl [I-004]
Post-emergence action against AMARE in % ([1]; 1280 g/ha): 80% | Post-emergence action against PHBPU in % [2]: 80% | Pre-emergence action against AMARE in % [3]: 90% | Post-emergence action against POLCO in % [4]: 80%

COC(=O)COc1nn(-c2cccc(F)c2)c(-c2ccc(Cl)cc2)c1Cl [I-005]
Post-emergence action against AMARE in % ([1]; 320 g/ha): 80% | Post-emergence action against AMARE in % ([1]; 1280 g/ha): 80% | Post-emergence action against PHBPU in % [2]: 80% | Post-emergence action against VIOTR in % [5]: 80%

COC(=O)COc1nn(-c2ccc(F)cc2)c(-c2ccccc2)c1C#N [I-011]
Post-emergence action against VERPE in % [6]: 80% | Post-emergence action against STEME in % ([7]; 1280 g/ha): 80% | Pre-emergence action against AMARE in % [3]: 90% | Post-emergence action against POLCO in % [4]: 80% | Post-emergence action against MATIN in % ([8]; 320 g/ha): 90% | Post-emergence action against MATIN in % ([8]; 1280 g/ha): 90% | Pre-emergence action at 1280 g/ha against ECHCG in % [9]: 80%

COC(=O)COc1nn(-c2ccc(Cl)cc2)c(-c2cccc(F)c2)c1Cl [I-029]
Post-emergence action against PHBPU in % [2]: 80% | Post-emergence action against VERPE in % [6]: 80%

COC(=O)COc1nn(-c2cccc(F)c2)c(-c2cccc(Cl)c2)c1C#N [I-038]
Post-emergence action against AMARE in % ([1]; 1280 g/ha): 90% | Post-emergence action against PHBPU in % [2]: 80% | Post-emergence action against VERPE in % [6]: 80% | Post-emergence action against MATIN in % ([8]; 1280 g/ha): 80%

COC(=O)COc1nn(-c2cccc(F)c2)c(-c2cccc(F)c2)c1C#N [I-047]
Post-emergence action against AMARE in % ([1]; 320 g/ha): 80% | Post-emergence action against PHBPU in % [2]: 80% | Pre-emergence action against VERPE in % [10]: 90% | Post-emergence action against VIOTR in % [5]: 90% | Post-emergence action against VERPE in % [6]: 80% | Post-emergence action against STEME in % ([7]; 320 g/ha): 80% | Pre-emergence action at 320 g/ha against AMARE in % ([3]; 320 g/ha, 100% = plants have died, 0% = like control plants): 90% | Post-emergence action against MATIN in % ([8]; 320 g/ha): 80%

CCOC(=O)COc1nn(-c2cc(F)c(F)cc2F)c(-c2ccccc2)c1Cl [I-093]
Post-emergence action against AMARE in % ([1]; 1280 g/ha): 100% | Pre-emergence action against STEME in % [11]: 100% | Post-emergence action against STEME in % ([7]; 1280 g/ha): 100% | Pre-emergence action against SETVI in % [12]: 100% | Pre-emergence action against AMARE in % [3]: 100% | Post-emergence action against MATIN in % ([8]; 1280 g/ha): 100% | Post-emergence action against ECHCG in % [13]: 100% | Pre-emergence action at 1280 g/ha against ECHCG in % [9]: 100%

CCOC(=O)COc1nn(-c2cc(F)c(F)cc2F)c(-c2cccc(F)c2)c1Cl [I-097]
Pre-emergence action against STEME in % [11]: 100% | Post-emergence action against STEME in % ([7]; 1280 g/ha): 100% | Pre-emergence action against SETVI in % [12]: 100% | Pre-emergence action against AMARE in % [3]: 100% | Post-emergence action against MATIN in % ([8]; 1280 g/ha): 100% | Post-emergence action against SETVI in % [14]: 90% | Post-emergence action against ECHCG in % [13]: 100% | Pre-emergence action at 1280 g/ha against ECHCG in % [9]: 100%

CCOC(=O)COc1nn(-c2ccc(F)cc2F)c(-c2cccc(F)c2)c1Cl [I-098]
Post-emergence action against AMARE in % ([1]; 1280 g/ha): 100% | Pre-emergence action against STEME in % [11]: 100% | Post-emergence action against STEME in % ([7]; 1280 g/ha): 90% | Pre-emergence action against SETVI in % [12]: 90% | Pre-emergence action against AMARE in % [3]: 100% | Post-emergence action against MATIN in % ([8]; 1280 g/ha): 90% | Post-emergence action against SETVI in % [14]: 90% | Post-emergence action against ECHCG in % [13]: 100% | Pre-emergence action at 1280 g/ha against ECHCG in % [9]: 100%
